# Results from PMC12615518, “Discovery of CRBN-recruiting PROTAC degraders of the METTL3-METTL14 complex” (Medicinal Chemistry Research, 2025).
# Read-outs that look alike come from different tables or passages of the source.
# Assays:
# METTL3 [1] = tested on: METTL3; set-up: method as in PMID 32159918; conditions: read-out: IC50 METTL3 activity, reader-based HTRF assay; cited from earlier work
# METTL14 = molecular target: T1, METTL14 (Homo sapiens, UniProt Q9HCE5); assay: Immunoblotting (Western blot) degradation of METTL14 in MV4-11 cells; assay type: cell-based; conditions: MV4-11 cells, 24 h; for % reduction in MV4-11 cells, 0.3 µM, METTL14 / % reduction in MV4-11 cells, 1.0 µM, METTL14 / % degradation in MV4-11 cells, 0.3 µM, METTL14 / % degradation in MV4-11 cells, 1.0 µM, METTL14: immunoblotting; for % reduction in MV4-11 cells, 0.3 µM, METTL14 / % reduction in MV4-11 cells, 1.0 µM, METTL14: nd = no degradation; for degradation of METTL14 at 1 µM (in words): Fig. 4A right
# T1 construct: Following treatment, total cellular proteins were extracted using RIPA buffer; endogenous in cells; host or cells: MV4-11 (MV4.11) human AML cells, ATCC
# Procedure: (§1) All cell lines were maintained under standard conditions in a humidified atmosphere at 37 °C with 5% CO₂.
# (§2) Western Blot Analysis: Following treatment, total cellular proteins were extracted using RIPA buffer (Auragene, Changsha, China). […] After washing, membranes were incubated with horseradish peroxidase (HRP)-conjugated secondary antibodies (anti-rabbit or anti-mouse IgG; 1:5000) for 2 hours at room temperature. Protein bands were visualized using an enhanced chemiluminescence (ECL) detection kit (Amersham Pharmacia), following the manufacturer's protocol. Band intensities were quantified using ImageJ software and normalized to ACTIN as a loading control. Data was analyzed using GraphPad Prism 9.
# METTL3 [2] = molecular target: METTL3 (Homo sapiens, UniProt Q86U44); assay: Immunoblotting (Western blot) degradation of METTL3 in MV4-11 cells; assay type: cell-based; set-up: Following treatment, total cellular proteins were extracted using RIPA buffer; endogenous in cells; host or cells: MV4-11 (MV4.11) human AML cells, ATCC; conditions: MV4-11 cells, 24 h; for % reduction in MV4-11 cells, 0.3 µM, METTL3 / % reduction in MV4-11 cells, 1.0 µM, METTL3 / % degradation in MV4-11 cells, 0.3 µM, METTL3 / % degradation in MV4-11 cells, 1.0 µM, METTL3: immunoblotting; for % reduction in MV4-11 cells, 0.3 µM, METTL3 / % reduction in MV4-11 cells, 1.0 µM, METTL3: nd = no degradation; for degradation of METTL3 at 1 µM (in words): Fig. 4A right
# Procedure: as §1, §2
# METTL3 [3] = tested on: METTL3; set-up: method as in PMID 34431664; conditions: read-out: IC50 METTL3 inhibition, enzyme-based assays; cited from earlier work
# [4] = tested on: human AML patient-derived xenografts (PDX) models; set-up: method as in PMID 33902106; conditions: cited from earlier work
# METTL3/14 [5] = molecular target: METTL3/14; set-up: method as in PMID 33902106; conditions: read-out: METTL3/14 binding affinity (Kd); cited from earlier work
# [6] = tested on: primary mouse MLL-AF9/Flt3^Itd/+ model; set-up: method as in PMID 33902106; conditions: cited from earlier work
# METTL3/14 [7] = tested on: METTL3/14; set-up: method as in PMID 33902106; conditions: read-out: IC50 METTL3/14 catalytic activity inhibition; cited from earlier work
# METTL3 (Homo sapiens, UniProt Q86U44), sequence (Q86U44 2-580 limits assumed): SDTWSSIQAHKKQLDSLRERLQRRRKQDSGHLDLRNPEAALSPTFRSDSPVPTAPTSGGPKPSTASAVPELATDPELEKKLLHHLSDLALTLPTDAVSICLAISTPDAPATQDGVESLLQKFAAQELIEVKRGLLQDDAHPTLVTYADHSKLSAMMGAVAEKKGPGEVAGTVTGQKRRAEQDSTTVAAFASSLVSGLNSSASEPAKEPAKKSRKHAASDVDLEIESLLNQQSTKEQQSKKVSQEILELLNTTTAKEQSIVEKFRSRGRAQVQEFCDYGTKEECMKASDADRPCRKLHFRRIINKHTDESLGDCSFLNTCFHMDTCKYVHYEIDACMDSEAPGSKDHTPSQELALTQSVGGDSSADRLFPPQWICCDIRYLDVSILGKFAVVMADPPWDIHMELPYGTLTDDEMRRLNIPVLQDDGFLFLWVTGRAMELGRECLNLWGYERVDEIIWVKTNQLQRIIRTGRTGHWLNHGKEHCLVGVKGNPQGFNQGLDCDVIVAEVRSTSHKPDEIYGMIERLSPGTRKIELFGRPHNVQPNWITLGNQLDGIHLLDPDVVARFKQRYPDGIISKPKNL
# METTL3 (Homo sapiens, UniProt Q86U44), sequence (Q9HCE5 whole entry partner): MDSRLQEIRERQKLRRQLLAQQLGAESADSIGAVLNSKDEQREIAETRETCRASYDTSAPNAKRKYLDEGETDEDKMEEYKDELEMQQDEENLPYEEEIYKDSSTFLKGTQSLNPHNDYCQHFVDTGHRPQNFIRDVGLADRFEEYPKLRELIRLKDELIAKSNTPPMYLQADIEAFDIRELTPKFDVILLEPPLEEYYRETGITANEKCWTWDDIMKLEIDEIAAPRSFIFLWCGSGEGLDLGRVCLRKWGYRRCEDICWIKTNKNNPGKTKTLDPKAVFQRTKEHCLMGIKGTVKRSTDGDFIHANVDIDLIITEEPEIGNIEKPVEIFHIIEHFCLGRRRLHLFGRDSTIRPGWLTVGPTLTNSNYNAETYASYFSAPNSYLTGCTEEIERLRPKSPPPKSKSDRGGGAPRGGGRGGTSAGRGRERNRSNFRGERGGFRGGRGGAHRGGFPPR
# T1 sequence (Q9HCE5 whole entry): as the sequence (Q9HCE5 whole entry partner) above
# T1 sequence (Q86U44 2-580 partner): as the sequence (Q86U44 2-580 limits assumed) above
molecule,measurement,setting,value
Nc1ncnc2c1ncn2[C@@H]1O[C@H](C(=O)NCCCCN2CCCC2)[C@@H](O)[C@H]1O [Compound 1],IC50,METTL3 [1],8700 nM
"CC1(C)CCN(Cc2cc(F)c(N3CC(=O)NC4(CCN(c5cc(NCCCCCCC(=O)N6CCN(c7ccc8c(c7)CN(C7CCC(=O)NC7=O)C8=O)CC6)ncn5)CC4)C3)cc2F)CC1 (stereo not shown) [Compound 4g, 3-(5-(4-(7-((6-(4-(4-((4,4-dimethylpiperidin-1-yl)methyl)-2,5-difluorophenyl)-2-oxo-1,4,9-triazaspiro[5.5]undecan-9-yl)pyrimidin-4-yl)amino)heptanoyl)piperazin-1-yl)-1-oxoisoindolin-2-yl)piperidine-2,6-dione]","% reduction in MV4-11 cells, 0.3 µM, METTL14",METTL14,0%
same,"% reduction in MV4-11 cells, 1.0 µM, METTL14",METTL14,34%
same,"% reduction in MV4-11 cells, 0.3 µM, METTL3",METTL3 [2],9%
same,"% reduction in MV4-11 cells, 1.0 µM, METTL3",METTL3 [2],25%
"CC1(C)CCN(Cc2cc(F)c(N3CC(=O)NC4(CCN(c5cc(NCCCCCCCC(=O)N6CCN(c7ccc8c(c7)CN(C7CCC(=O)NC7=O)C8=O)CC6)ncn5)CC4)C3)cc2F)CC1 (stereo not shown) [Compound 4h, 3-(5-(4-(8-((6-(4-(4-((4,4-dimethylpiperidin-1-yl)methyl)-2,5-difluorophenyl)-2-oxo-1,4,9-triazaspiro[5.5]undecan-9-yl)pyrimidin-4-yl)amino)octanoyl)piperazin-1-yl)-1-oxoisoindolin-2-yl)piperidine-2,6-dione]","% reduction in MV4-11 cells, 0.3 µM, METTL14",METTL14,40%
same,"% reduction in MV4-11 cells, 1.0 µM, METTL14",METTL14,64%
same,"% reduction in MV4-11 cells, 0.3 µM, METTL3",METTL3 [2],46%
same,"% reduction in MV4-11 cells, 1.0 µM, METTL3",METTL3 [2],69%
"CC1(C)CCN(Cc2cc(F)c(N3CC(=O)NC4(CCN(c5cc(NCCCCCCCCC(=O)N6CCN(c7ccc8c(c7)CN(C7CCC(=O)NC7=O)C8=O)CC6)ncn5)CC4)C3)cc2F)CC1 (stereo not shown) [Compound 4i, 3-(5-(4-(9-((6-(4-(4-((4,4-dimethylpiperidin-1-yl)methyl)-2,5-difluorophenyl)-2-oxo-1,4,9-triazaspiro[5.5]undecan-9-yl)pyrimidin-4-yl)amino)nonanoyl)piperazin-1-yl)-1-oxoisoindolin-2-yl)piperidine-2,6-dione]","% reduction in MV4-11 cells, 0.3 µM, METTL14",METTL14,54%
same,"% reduction in MV4-11 cells, 1.0 µM, METTL14",METTL14,72%
same,"% reduction in MV4-11 cells, 0.3 µM, METTL3",METTL3 [2],52%
same,"% reduction in MV4-11 cells, 1.0 µM, METTL3",METTL3 [2],73%
"CN1C(=O)CCC(N2Cc3cc(N4CCN(C(=O)CCCCCCCCCNc5cc(N6CCC7(CC6)CN(c6cc(F)c(CN8CCC(C)(C)CC8)cc6F)CC(=O)N7)ncn5)CC4)ccc3C2=O)C1=O (stereo not shown) [Compound 4k, 3-(5-(4-(10-((6-(4-(4-((4,4-dimethylpiperidin-1-yl)methyl)-2,5-difluorophenyl)-2-oxo-1,4,9-triazaspiro[5.5]undecan-9-yl)pyrimidin-4-yl)amino)decanoyl)piperazin-1-yl)-1-oxoisoindolin-2-yl)-1-methylpiperidine-2,6-dione]",degradation of METTL14 at 1 µM (in words),METTL14,not degraded
same,degradation of METTL14 (in words),METTL14; Table 1 screening,did not induce degradation
same,degradation of METTL3 at 1 µM (in words),METTL3 [2],not degraded
same,degradation of METTL3 (in words),METTL3 [2]; Table 1 screening,did not induce degradation
"CNc1cc(N2CCC3(CC2)CN(c2cc(F)c(CN4CCC(C)(C(=O)NCCCCNc5cccc6c5C(=O)N(C5CCC(=O)NC5=O)C6=O)CC4)cc2F)CC(=O)N3)ncn1 (stereo not shown) [Compound 5a, 1-(2,5-difluoro-4-(9-(6-(methylamino)pyrimidin-4-yl)-2-oxo-1,4,9-triazaspiro[5.5]undecan-4-yl)benzyl)-N-(4-((2-(2,6-dioxopiperidin-3-yl)-1,3-dioxoisoindolin-4-yl)amino)butyl)-4-methylpiperidine-4-carboxamide]","% degradation in MV4-11 cells, 0.3 µM, METTL14",METTL14,8%
same,"% degradation in MV4-11 cells, 1.0 µM, METTL14",METTL14,21%
same,"% degradation in MV4-11 cells, 0.3 µM, METTL3",METTL3 [2],33%
same,"% degradation in MV4-11 cells, 1.0 µM, METTL3",METTL3 [2],52%
"CNc1cc(N2CCC3(CC2)CN(c2cc(F)c(CN4CCC(C)(C(=O)NCCCCCCNc5cccc6c5C(=O)N(C5CCC(=O)NC5=O)C6=O)CC4)cc2F)CC(=O)N3)ncn1 (stereo not shown) [Compound 5b, 1-(2,5-difluoro-4-(9-(6-(methylamino)pyrimidin-4-yl)-2-oxo-1,4,9-triazaspiro[5.5]undecan-4-yl)benzyl)-N-(6-((2-(2,6-dioxopiperidin-3-yl)-1,3-dioxoisoindolin-4-yl)amino)hexyl)-4-methylpiperidine-4-carboxamide]","% degradation in MV4-11 cells, 0.3 µM, METTL14",METTL14,20%
same,"% degradation in MV4-11 cells, 1.0 µM, METTL14",METTL14,21%
same,"% degradation in MV4-11 cells, 0.3 µM, METTL3",METTL3 [2],55%
same,"% degradation in MV4-11 cells, 1.0 µM, METTL3",METTL3 [2],56%
"CNc1cc(N2CCC3(CC2)CN(c2cc(F)c(CN4CCC(C)(C(=O)NCCCCCCCCNc5cccc6c5C(=O)N(C5CCC(=O)NC5=O)C6=O)CC4)cc2F)CC(=O)N3)ncn1 (stereo not shown) [Compound 5c, 1-(2,5-difluoro-4-(9-(6-(methylamino)pyrimidin-4-yl)-2-oxo-1,4,9-triazaspiro[5.5]undecan-4-yl)benzyl)-N-(8-((2-(2,6-dioxopiperidin-3-yl)-1,3-dioxoisoindolin-4-yl)amino)octyl)-4-methylpiperidine-4-carboxamide]","% degradation in MV4-11 cells, 0.3 µM, METTL14",METTL14,20%
same,"% degradation in MV4-11 cells, 1.0 µM, METTL14",METTL14,24%
same,"% degradation in MV4-11 cells, 0.3 µM, METTL3",METTL3 [2],50%
same,"% degradation in MV4-11 cells, 1.0 µM, METTL3",METTL3 [2],54%
"CNc1cc(N2CCC3(CC2)CN(c2cc(F)c(CN4CCC(C)(C(=O)NCCCCCCCCCCNc5cccc6c5C(=O)N(C5CCC(=O)NC5=O)C6=O)CC4)cc2F)CC(=O)N3)ncn1 (stereo not shown) [Compound 5d, 1-(2,5-difluoro-4-(9-(6-(methylamino)pyrimidin-4-yl)-2-oxo-1,4,9-triazaspiro[5.5]undecan-4-yl)benzyl)-N-(10-((2-(2,6-dioxopiperidin-3-yl)-1,3-dioxoisoindolin-4-yl)amino)decyl)-4-methylpiperidine-4-carboxamide]","% degradation in MV4-11 cells, 0.3 µM, METTL14",METTL14,34%
same,"% degradation in MV4-11 cells, 1.0 µM, METTL14",METTL14,21%
same,"% degradation in MV4-11 cells, 0.3 µM, METTL3",METTL3 [2],26%
same,"% degradation in MV4-11 cells, 1.0 µM, METTL3",METTL3 [2],3%
"CNc1cc(N2CCC3(CC2)CN(c2cc(F)c(CN4CCC(C)(C)CC4)cc2F)CC(=O)N3)ncn1 [UZH2, reference compound]",IC50,METTL3 [3],5 nM
same,degradation of METTL14 at 1 µM (in words),METTL14,not degraded
same,degradation of METTL3 at 1 µM (in words),METTL3 [2],not degraded
STM2457,anti-leukemic effect,[4],anti-leukemic effect
same,Kd,METTL3/14 [5],1.4 nM
same,anti-leukemic effect,[6],anti-leukemic effect
same,IC50,METTL3/14 [7],16.9 nM
